# In US10494380B2, “Nitrogen-containing tricyclic derivatives having HIV replication inhibitory activity” (priority 2015, dated 2019):
# pEC50, pIC50: −log10 of the molar value. Read-outs that look alike come from different tables or passages of the source.
# Legend:
# HIV = type: cell-based; details: EC50 in the presence of human serum (25%) versus without human serum, MT-4 cells
# Summary of the method: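 HIV-infected MT-4 cells (3×10^4/well, infected 1 h at 37° C) are grown 4 days with compound that was first mixed 1 h with human serum or with medium only. Potency shift is the EC50 with serum divided by the EC50 without serum.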
# HIV (HTLV-IIIB strain) = test: HIV replication inhibition assay (Test Example 1; MT-4 cells, MTT); type: cell-based; details: MT-4 cells, MTT; for EC90: read-out: EC90; for pEC50: read-out: EC50
# Protocol: HIV (HTLV-IIIB strain) persistent infected human T cell strain Molt-4 clone8 was cultured in RPMI-1640 medium supplemented with 10% fetal bovine serum and the supernatant was filtered, then the virus titer was measured and stored at −80° C. Each anti-human immunodeficiency virus active substance was diluted with the above culture medium to the designated concentration, which was dispensed into 96-well microtiter plate by 50 μL. Next, 100 μL of MT-4 cell suspension (2.5×10^4 cells) was dispensed into each well, then 50 μl of the above HIV-containing supernatant diluted with the above culture medium was added thereto (60 pfu (plaque forming unit)).
# Cell mixture was cultured at 37° C. in CO2 incubator for four days, then 30 μL of MTT (3-(4,5-dimethylthiazole-2-yl)-2,5-diphenyltetrazolyum bromide) reagent (5 mg/mL in PBS) was added to all wells followed by incubation for 1 hour. In this step, MTT was reduced to insoluble formazan in living cells. To elute generated formazan 150 μL of the culture supernatant was removed from all wells, then 150 μL of cell lysis solution (10% Triton X-100 and 0.4% (v/v)-HCl containing isopropanol) was added thereto, followed by shaking with a plate mixer. The formazan was measured with micro plate reader at OD: 560 nm and 690 nm (reference wavelength) and the result was compared with the reference wells. EC50 and EC90 mean the compound concentration at which cytotoxicity caused by virus infection is inhibited 50% and 90%, respectively.
# CYP3A4 = CYP3A4 (Homo sapiens (Human), UniProt P08684); test: CYP3A4 (MDZ) MBI test (Test Example 6); details: pooled human liver microsomes, midazolam 1-hydroxylation, preincubation 0 or 30 min
# Sequence of CYP3A4 (P08684 whole entry): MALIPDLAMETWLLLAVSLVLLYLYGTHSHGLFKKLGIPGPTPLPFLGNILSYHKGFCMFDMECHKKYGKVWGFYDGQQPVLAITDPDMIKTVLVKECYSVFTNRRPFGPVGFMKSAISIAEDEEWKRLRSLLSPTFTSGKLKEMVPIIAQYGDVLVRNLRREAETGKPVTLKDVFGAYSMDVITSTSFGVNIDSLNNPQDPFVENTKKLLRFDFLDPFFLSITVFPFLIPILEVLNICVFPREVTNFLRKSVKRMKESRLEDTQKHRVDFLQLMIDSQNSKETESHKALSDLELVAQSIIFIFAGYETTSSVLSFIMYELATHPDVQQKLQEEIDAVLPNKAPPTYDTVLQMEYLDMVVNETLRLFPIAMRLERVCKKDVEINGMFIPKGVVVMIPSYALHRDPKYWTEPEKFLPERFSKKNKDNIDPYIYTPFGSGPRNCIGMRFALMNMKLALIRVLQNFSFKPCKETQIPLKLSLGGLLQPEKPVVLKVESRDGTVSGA
# CYP2C9 = CYP2C9 (Homo sapiens (Human), UniProt P11712); test: CYP inhibition assay, tolbutamide methyl-hydroxylation (Test Example 4); type: in vitro ADME; details: pooled human hepatic microsome, 100 μmol/L tolbutamide, 15 minutes, 37° C.
# Sequence of CYP2C9 (P11712 whole entry): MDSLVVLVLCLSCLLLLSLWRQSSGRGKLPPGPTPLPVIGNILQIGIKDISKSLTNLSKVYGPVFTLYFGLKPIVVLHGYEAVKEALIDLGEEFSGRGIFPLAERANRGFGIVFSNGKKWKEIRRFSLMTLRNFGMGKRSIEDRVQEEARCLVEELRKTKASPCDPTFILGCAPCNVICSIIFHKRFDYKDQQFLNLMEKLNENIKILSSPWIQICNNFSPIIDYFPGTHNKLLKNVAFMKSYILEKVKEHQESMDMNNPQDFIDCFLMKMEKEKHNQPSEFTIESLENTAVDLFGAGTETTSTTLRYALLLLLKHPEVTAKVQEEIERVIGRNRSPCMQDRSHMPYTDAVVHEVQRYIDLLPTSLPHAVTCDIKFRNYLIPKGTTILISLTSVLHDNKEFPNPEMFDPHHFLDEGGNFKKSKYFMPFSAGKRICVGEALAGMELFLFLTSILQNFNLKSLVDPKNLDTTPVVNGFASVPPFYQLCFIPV
# Protocol: Using commercially available pooled human hepatic microsome, and employing, as markers, 7-ethoxyresorufin O-deethylation (CYP1A2), tolbutamide methyl-hydroxylation (CYP2C9), mephenytoin 4′-hydroxylation (CYP2C19), dextromethorphan O-demethylation (CYP2D6), and terfenadine hydroxylation (CYP3A4) as typical substrate metabolism reactions of human main five CYP enzyme forms (CYP1A2, 2C9, 2C19, 2D6, 3A4) an inhibitory degree of each metabolite production amount by a test compound was assessed.
# The reaction conditions were as follows: substrate, 0.5 μmol/L ethoxyresorufin (CYP1A2), 100 μmol/L tolbutamide (CYP2C9), 50 μmol/L S-mephenytoin (CYP2C19), 5 μmol/L dextromethorphan (CYP2D6), 1 μmol/L terfenedine (CYP3A4); reaction time, 15 minutes; reaction temperature, 37° C.; enzyme, pooled human hepatic microsome 0.2 mg protein/mL; test drug concentration, 1, 5, 10, 20 μmol/L (four points).
# Each five kinds of substrates, human hepatic microsome, and a test drug in 50 mmol/L Hepes buffer as a reaction solution was added to a 96-well plate as the composition ad described above, NADPH, as a coenzyme was added to initiate metabolism reactions as markers and, after the incubation at 37° C. for 15 minutes, a methanol/acetonitrile=1/1 (V/V) solution was added to stop the reaction. After the centrifugation at 3000 rpm for 15 minutes, resorufin (CYP1A2 metabolite) in the supernatant was quantified by a fluorescent multilabel counter and tolbutamide hydroxide (CYP2C9 metabolite), mephenytoin 4′ hydroxide (CYP2C19 metabolite), dextrorphan (CYP2D6 metabolite), and terfenadine alcohol (CYP3A4 metabolite) were quantified by LC/MS/MS.
# [1] = system: T125A mutant virus (HIV-1 NL-432 recombinant molecular clone, IN gene); test: HIV replication inhibition assay against integrase 124/125 mutant virus (Test Example 2); type: cell-based
# Summary of the method: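 EC50 is the compound concentration blocking half of virus-induced cell death, measured by MTT (OD 560 nm, 690 nm reference) after 4 days at 37 °C. Integrase 124/125 mutant NL-432 virus from transfected 293T cells (60 pfu) was added to 2.5×10^4 MT-4 cells with compound.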
# [2] = system: sheep red blood cells (RBC); test: Photohemolysis test (Test Example 13); type: cell-based; details: 0.0008 to 0.1 w/v %, 10 J/cm2 UV-irradiation (290-400 nm)
# Text: Aliquots of sheep red blood cells (RBC) suspension prepared with medium to make a 2.5 v/v % concentration are dispensed into microplates. The compound of the present invention was desolved with a vehicle to make target concentrations and then these solutions were immediately added (in concentrations of 0.0008 to 0.1 w/v %) into the microplates. The mixtures on the microplates were exposed to 10 J/cm2 of UV-irradiation (UV-A and UV-B, 290-400 nm) with a GL20SE lamp (SANKYO DENKI) and a FL20S-BLB lamp (Panasonic). After the UV-irradiation, the mixtures were centrifuged. Aliquots of supernatant were transferred to a microplate. Absorbance of the supernatants was measured at 540 nm and 630 nm for judgement of the potential of phototoxicity. In the study, two endpoints were evaluated in biomembrane impairment (% of photohemolysis index; PI) and hyperoxidation of lipid membrane (methemoglobin formation; met-Hb) with the absorbance at 540 nm and 630 nm, respectively. PI and met-Hb were assessed based on the negative criteria (−), PI<10% and changes in absorbance at 630 nm<0.05, respectively. All else was judged as positive (+).
# [3] = Human immunodeficiency virus 1, MT4, 96 h, HIV (HTLV-IIIB strain), four days
# [4] = Human immunodeficiency virus 1, MT4, read-out: EC50 against T125A mutant virus, T125A mutant virus (HIV-1 NL-432 IN gene), MT-4 cells, MTT
# [5] = HIV (HTLV-IIIB strain), four days
# [6] = T125A mutant virus (HIV-1 NL-432 IN gene), MT-4 cells, MTT, read-out: EC50 against T125A mutant virus
Structure (SMILES),Potency shift value (HIV),EC90 (HIV (HTLV-IIIB strain); [3]) [nM],"pEC50 (HIV (HTLV-IIIB strain); Human immunodeficiency virus 1, MT4, 96 h, HIV HTLV-IIIB strain, cultured four days)","CYP3A4 (MDZ) MBI, shifted IC (CYP3A4)",pIC50 (CYP2C9),"pEC50 [1, 4]","Photohemolysis test, potential of phototoxicity (PI and met-Hb) [2]",pEC50 (HIV (HTLV-IIIB strain); [5]),EC90 (HIV (HTLV-IIIB strain); [5]) [nM],"pEC50 [1, 6]",pEC50 (HIV (HTLV-IIIB strain); [3])
"Cc1ccc(-c2c([C@H](OC(C)(C)C)C(=O)O)c(C)c3c4c2cc(C)n4C(C)CN3CCN(C)C)cc1 (single isomer, unassigned) [Compound I-164]",2.6,20,7.96,"(−) (When a shifted IC was 1.0 or less, this was defined as negative)",< 4.70,7.38,"(−) (negative criteria (−), PI<10% and changes in absorbance at 630 nm<0.05, respectively)",–,–,–,–
Cc1ccc(-c2c(C(OC(C)(C)C)C(=O)O)c(C)c3c4c2cc(C)n4CCN3CCN(C)C)cc1 (stereo not drawn) [Compound I-027],1.4,–,–,"(−) (When a shifted IC was 1.0 or less, this was defined as negative)",< 4.70,–,"(−) (negative criteria (−), PI<10% and changes in absorbance at 630 nm<0.05, respectively)",8.00,16,7.59,–
Cc1c([C@H](OC(C)(C)C)C(=O)O)c(-c2ccc(Cl)cc2)c2cc(C)n3c2c1N(S(C)(=O)=O)[C@@H](CC(F)F)C3 [Compound I-041],4.1,2.3,–,"(−) (When a shifted IC was 1.0 or less, this was defined as negative)",< 4.70,7.89,"(−) (negative criteria (−), PI<10% and changes in absorbance at 630 nm<0.05, respectively)",–,–,–,8.82
COCC[C@H]1Cn2c(C)cc3c(-c4ccc(Cl)cc4)c([C@H](OC(C)(C)C)C(=O)O)c(C)c(c32)N1S(C)(=O)=O [Compound I-043],3.2,–,–,"(−) (When a shifted IC was 1.0 or less, this was defined as negative)",< 4.70,–,"(−) (negative criteria (−), PI<10% and changes in absorbance at 630 nm<0.05, respectively)",8.85,2.3,7.96,–
Cc1c([C@H](OC(C)(C)C)C(=O)O)c(-c2ccc(Cl)cc2)c2cc(C)n3c2c1N(c1ncc(F)cn1)CC3 [Compound I-122],23,2.9,–,"(−) (When a shifted IC was 1.0 or less, this was defined as negative)",< 4.70,8.29,"(−) (negative criteria (−), PI<10% and changes in absorbance at 630 nm<0.05, respectively)",–,–,–,8.89
COc1cnc(N2CCn3c(C)cc4c(-c5ccc(Cl)cc5)c([C@H](OC(C)(C)C)C(=O)O)c(C)c2c43)nc1 [Compound I-156],12,1.2,–,"(−) (When a shifted IC was 1.0 or less, this was defined as negative)",< 4.70,8.44,"(−) (negative criteria (−), PI<10% and changes in absorbance at 630 nm<0.05, respectively)",–,–,–,9.07
